Assay results taken from US12643871B2, “Aryl formamide compound containing chiral sulfur oxide or salt thereof, preparation method, herbicidal composition and use thereof” (Qingdao Kingagroot Chemical Compound Co., Ltd., priority 2019, dated 2026).

Experiments:
Format in all cases: in vivo
Abutilon theophrasti = assay: Weeding effect in post-emergence stage; conditions: 250 g/ha; 2 leaf stage; 15 days after application; fresh weight control rate
Outline: (§1)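 Greenhouse pot-grown weeds were sprayed at the 2-leaf stage, 2 weeks after sowing, with compound in acetone/Tween 80 plus 1.5 L/ha methyl oleate EC, at 500, 250, 125, 60, 30 or 15 g/ha. Fresh-weight growth control was scored 15 days later on a 0–5 scale, mean of three repeats.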

Amaranthus retroflexus = assay: Weeding effect in post-emergence stage; conditions: 250 g/ha; 2 leaf stage; 15 days after application; fresh weight control rate
Outline: as §1

Digitaria sanguinalis = assay: Weeding effect in post-emergence stage; conditions: 250 g/ha; 2 leaf stage; 15 days after application; fresh weight control rate
Outline: as §1

Echinochloa crusgali = assay: Weeding effect in post-emergence stage; conditions: 250 g/ha; 2 leaf stage; 15 days after application; fresh weight control rate
Outline: as §1

Setaria viridis = assay: Weeding effect in post-emergence stage; conditions: 250 g/ha; 2 leaf stage; 15 days after application; fresh weight control rate
Outline: as §1

[1] = test system: key weeds such as Digitaria sanguinalis, Leptochloa chinensis; assay: Comparison experiment (post-emergence, Tables 4-7), herbicidal activity on weeds not listed separately; conditions: dose of 125, 60, 30, 15 g/ha
Outline: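 Compounds are applied post-emergence by spray tower to plants at the 2 leaf stage, at rates from 15 to 500 g/ha with a methyl oleate synergist. Control is expressed on fresh weight, counted after 15 days in the greenhouse and averaged across three repetitions.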

rice and other crops = assay: Comparison experiment (post-emergence, Tables 4-7), crop safety; conditions: dose of 125, 60, 30, 15 g/ha
Source text: The above growth control rates are fresh weight control rates.
Experiment on weeding effect in post-emergence stage: monocotyledonous and dicotyledonous weed seeds (Descurainia sophia, Capsella bursa-pastoris, Galium aparine, Stellaria media, Lithospermum arvense, Rorippa indica, Alopecurus aequalis, Beckmannia syzigachne, Sclerochloa dura, Phleum paniculatum, Bromus japonicus, Aegilops tauschii, Phalaris arundinacea, Amaranthus retroflexus, Chenopodiaceae, Commelina communis, Sonchus arvensis, convolvulus arvensis, Cirsium setosum, Solanum nigrum, Acalypha australis, Digitaria sanguinalis, Echinochloa crusgalli, Setaria viridis, Setaria glauca, Leptochloa chinensis, Monochoria vaginalis, Sagittaria trifolia, Scirpus juncoides, Cyperus rotundus, Cyperus iria, Cyperus difformis, Fimbristylis, Portulaca oleracea, Xanthium sibiricum, Pharbitis nil) and major crop seeds (wheat, corn, rice, soybean, cotton, oilseed rape, millet, sorghum, potato, sesame, ricinus) were placed in plastic pots filled with soil, then covered with 0.5-2 cm of soil, allowed to grow in a good greenhouse environment. After 2 weeks of sowing, the test plants were treated in the 2 leaf stage. The tested compounds of the present invention were respectively dissolved in acetone, then added with Tween 80 and 1.5 liter/ha of emulsifiable concentrate of methyl oleate as synergist, diluted with a certain amount of water to obtain a solution with a certain concentration, and sprayed with a spray tower onto the plants. After the application, the plants were cultured for 15 days in the greenhouse, and then the experimental results of the weeding were counted. The doses of the used compounds were 500, 250, 125, 60, 30, 15 g/ha, and the averages were obtained by repeating for three times.
If there is no clear marker, the post-seedling test conditions are the same as above, and the experimental results are shown in Tables 4-7.

Structure (SMILES) | weeding effect in post-emergence stage, activity level (growth control rate), Abutilon theophrasti (Abutilon theophrasti) | weeding effect in post-emergence stage, activity level (growth control rate), Amaranthus retroflexus (Amaranthus retroflexus) | weeding effect in post-emergence stage, activity level (growth control rate), Digitaria sanguinalis (Digitaria sanguinalis) | weeding effect in post-emergence stage, activity level (growth control rate), Echinochloa crusgali (Echinochloa crusgali) | weeding effect in post-emergence stage, activity level (growth control rate), Setaria viridis (Setaria viridis) | activity to key weeds such as Digitaria sanguinalis, Leptochloa chinensis compared with the corresponding racemate or S configuration [1] | safety to rice and other crops compared with the corresponding racemate or S configuration (rice and other crops)
CC[S@@+]([O-])c1c(C(F)(F)F)ccc(C(=O)Nc2nnc(C)o2)c1F [Compound 2] | 5 (Level 5: growth control rate is above 85%) | 5 (Level 5: growth control rate is above 85%) | 4 (Level 4: growth control rate is greater than or equal to 60% and less than 85%) | 5 (Level 5: growth control rate is above 85%) | 4 (Level 4: growth control rate is greater than or equal to 60% and less than 85%) | better activity | higher safety
Cc1nnc(NC(=O)c2ccc(C(F)(F)F)c([S@@+]([O-])C[S+](C)[O-])c2F)o1 (some centres unmarked) [Compound 205] | 5 (Level 5: growth control rate is above 85%) | 5 (Level 5: growth control rate is above 85%) | 5 (Level 5: growth control rate is above 85%) | 5 (Level 5: growth control rate is above 85%) | 5 (Level 5: growth control rate is above 85%) | better activity | higher safety
Cc1nnc(NC(=O)c2ccc(C(F)(F)F)c([S@+]([O-])CC=C(Cl)Cl)c2F)o1 [Compound 40] | 5 (Level 5: growth control rate is above 85%) | 5 (Level 5: growth control rate is above 85%) | 5 (Level 5: growth control rate is above 85%) | 5 (Level 5: growth control rate is above 85%) | 5 (Level 5: growth control rate is above 85%) | better activity | higher safety
COC[S+]([O-])c1c(C(F)(F)F)ccc(C(=O)Nc2nnc(C)o2)c1F (centres unmarked) [Compound 69] | 5 (Level 5: growth control rate is above 85%) | 5 (Level 5: growth control rate is above 85%) | 5 (Level 5: growth control rate is above 85%) | 5 (Level 5: growth control rate is above 85%) | 5 (Level 5: growth control rate is above 85%) | better activity | higher safety
CNCC[S@@+]([O-])c1c(C(F)(F)F)ccc(C(=O)Nc2nnc(C)o2)c1F [Compound 67] | 5 (Level 5: growth control rate is above 85%) | 5 (Level 5: growth control rate is above 85%) | 5 (Level 5: growth control rate is above 85%) | 5 (Level 5: growth control rate is above 85%) | 5 (Level 5: growth control rate is above 85%) | better activity | higher safety
C=CCC[S@@+]([O-])c1c(C(F)(F)F)ccc(C(=O)Nc2nnc(C)o2)c1F [Compound 20] | 5 (Level 5: growth control rate is above 85%) | 5 (Level 5: growth control rate is above 85%) | 5 (Level 5: growth control rate is above 85%) | 5 (Level 5: growth control rate is above 85%) | 5 (Level 5: growth control rate is above 85%) | better activity | higher safety
Cc1nnc(NC(=O)c2ccc(C(F)(F)F)c([S@+]([O-])Cc3cn(C)nc3C)c2F)o1 [Compound 184] | – | 5 (Level 5: growth control rate is above 85%) | – | 5 (Level 5: growth control rate is above 85%) | – | better activity | higher safety
CCC[S@@+]([O-])c1c(C(F)(F)F)ccc(C(=O)N(c2nnc(C)o2)C(C)OC(=O)OCC)c1F (some centres unmarked) [Compound 261] | 5 (Level 5: growth control rate is above 85%) | 5 (Level 5: growth control rate is above 85%) | 5 (Level 5: growth control rate is above 85%) | 5 (Level 5: growth control rate is above 85%) | 5 (Level 5: growth control rate is above 85%) | better activity | higher safety
Cc1nnc(NC(=O)c2ccc(C(F)(F)F)c([S@+]([O-])CCC3CC3)c2F)o1 [Compound 17] | 5 (Level 5: growth control rate is above 85%) | 5 (Level 5: growth control rate is above 85%) | 5 (Level 5: growth control rate is above 85%) | 5 (Level 5: growth control rate is above 85%) | 5 (Level 5: growth control rate is above 85%) | better activity | higher safety
CCCCC[S@@+]([O-])c1c(C(F)(F)F)ccc(C(=O)Nc2nnc(C)o2)c1F [Compound 8] | 5 (Level 5: growth control rate is above 85%) | 5 (Level 5: growth control rate is above 85%) | 4 (Level 4: growth control rate is greater than or equal to 60% and less than 85%) | 5 (Level 5: growth control rate is above 85%) | 4 (Level 4: growth control rate is greater than or equal to 60% and less than 85%) | better activity | higher safety
CC[S@@+]([O-])c1c(C(F)(F)F)ccc(C(=O)N(c2nnc(C)o2)C(C)OC(=O)OC)c1F (some centres unmarked) [Compound 248] | – | 5 (Level 5: growth control rate is above 85%) | – | 5 (Level 5: growth control rate is above 85%) | – | better activity | higher safety
